Measured values taken from patent US9662327B2 (AGIOS PHARMACEUTICALS, INC, priority 2011, dated 2017).

Target: IDH1 R132H (Homo sapiens (Human), UniProt O75874, R132H)
Assay: Assays for IDH1 R132H Inhibitors (NADPH/aKG, resazurin detection)
Type: biochemical
Conditions: IDH1 R132H enzyme, Table 2; read-out: IDHR132H Activity
Protocol: Assays were conducted in a volume of […] assay buffer (150 mM NaCl, 10 mM MgCl2, 20 mM Tris pH 7.5, 0.03% bovine serum albumin) as follows in a standard 384-well plate: To 25 ul of substrate mix (8 uM NADPH, 2 mM aKG), 1 μl of test compound was added in DMSO. […] The reaction was incubated for 50 minutes at room temperature, then 25 μl of detection mix (30 μM resazurin, […]) was added and the mixture further incubated for 5 minutes at room temperature.

Sequence of IDH1 R132H (O75874 whole entry R132H): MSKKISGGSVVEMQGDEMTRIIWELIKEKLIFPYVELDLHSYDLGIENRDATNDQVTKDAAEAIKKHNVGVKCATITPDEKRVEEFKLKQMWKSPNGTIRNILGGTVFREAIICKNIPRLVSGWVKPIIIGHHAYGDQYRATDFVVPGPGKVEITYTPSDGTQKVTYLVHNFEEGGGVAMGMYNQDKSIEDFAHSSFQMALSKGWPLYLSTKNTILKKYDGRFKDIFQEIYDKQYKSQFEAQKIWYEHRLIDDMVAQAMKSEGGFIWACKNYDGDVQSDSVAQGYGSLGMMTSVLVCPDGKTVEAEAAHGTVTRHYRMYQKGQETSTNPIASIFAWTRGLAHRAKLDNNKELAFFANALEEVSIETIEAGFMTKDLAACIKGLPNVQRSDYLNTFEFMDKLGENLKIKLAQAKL

IC50 | Structure (SMILES)
1 to 10 µM | CC(C)c1nc(N2CCN(C(=O)Cc3cc(F)cc(F)c3)[C@H](C)C2)c(C#N)c2c1COC(C)(C)C2 [Compound 159, (R)-6-(4-(2-(3,5-difluorophenyl)acetyl)-3-methylpiperazin-1-yl)-8-isopropyl-3,3-dimethyl-3,4-dihydro-1H-pyrano[3,4-c]pyridine-5-carbonitrile]
1 to 10 µM | C[C@@H]1CN(c2nc(C3CCCCC3)c3c(c2C#N)CCOC3)CCN1C(=O)c1ccco1 [Compound 162, (R)-8-cyclohexyl-6-(4-(furan-2-carbonyl)-3-methylpiperazin-1-yl)-3,4-dihydro-1H-pyrano[3,4-c]pyridine-5-carbonitrile]
0.5 to 1 µM | Cc1occc1C(=O)N1CCN(c2nc(C(C)C)c3c(c2C#N)CC(C)(C)OC3)C[C@H]1C [Compound 163, (R)-8-isopropyl-3,3-dimethyl-6-(3-methyl-4-(2-methylfuran-3-carbonyl)piperazin-1-yl)-3,4-dihydro-1H-pyrano[3,4-c]pyridine-5-carbonitrile]
1 to 10 µM | CC(C)c1nc(N2CCN(C(=O)c3ccc(Cl)cc3Cl)[C@H](C)C2)c(C#N)c2c1COC(C)(C)C2 [Compound 166, (R)-6-(4-(2,4-dichlorobenzoyl)-3-methylpiperazin-1-yl)-8-isopropyl-3,3-dimethyl-3,4-dihydro-1H-pyrano[3,4-c]pyridine-5-carbonitrile]
< 0.5 µM | CC(C)c1nc(N2CCN(C(=O)c3ccco3)[C@H](C(C)C)C2)c(C#N)c2c1COC(C)(C)C2 [Compound 171, (R)-6-(4-(furan-2-carbonyl)-3-isopropylpiperazin-1-yl)-8-isopropyl-3,3-dimethyl-3,4-dihydro-1H-pyrano[3,4-c]pyridine-5-carbonitrile]
1 to 10 µM | CCC1CN(c2nc(C(C)C)c3c(c2C#N)CC(C)(C)OC3)CCN1C(=O)c1ccoc1 (stereo not shown) [Compound 172, 6-(3-ethyl-4-(furan-3-carbonyl)piperazin-1-yl)-8-isopropyl-3,3-dimethyl-3,4-dihydro-1H-pyrano[3,4-c]pyridine-5-carbonitrile]
1 to 10 µM | CCC1CN(c2nc(C3CCCCC3)c3c(c2C#N)CCOC3)CCN1C(=O)c1ccoc1 (stereo not shown) [Compound 175, 8-cyclohexyl-6-(3-ethyl-4-(furan-3-carbonyl)piperazin-1-yl)-3,4-dihydro-1H-pyrano[3,4-c]pyridine-5-carbonitrile]
1 to 10 µM | Cc1occc1C(=O)N1CCN(c2nc(C(C)C)c3c(c2C#N)CCOC3)C(c2ccccc2)C1 (stereo not shown) [Compound 177, 8-isopropyl-6-(4-(2-methylfuran-3-carbonyl)-2-phenylpiperazin-1-yl)-3,4-dihydro-1H-pyrano[3,4-c]pyridine-5-carbonitrile]
1 to 10 µM | CC(C)c1nc(N2CCN(C(=O)c3ccoc3)CC2c2ccccc2)c(C#N)c2c1COC(C)(C)C2 (stereo not shown) [Compound 178, 6-(4-(furan-3-carbonyl)-2-phenylpiperazin-1-yl)-8-isopropyl-3,3-dimethyl-3,4-dihydro-1H-pyrano[3,4-c]pyridine-5-carbonitrile]
1 to 10 µM | Cc1occc1C(=O)N1CCN(c2nc(C(C)C)c3c(c2C#N)CC(C)(C)OC3)C(c2ccccc2)C1 (stereo not shown) [Compound 179, 8-isopropyl-3,3-dimethyl-6-(4-(2-methylfuran-3-carbonyl)-2-phenylpiperazin-1-yl)-3,4-dihydro-1H-pyrano[3,4-c]pyridine-5-carbonitrile]
< 0.5 µM | CC(C)[C@@H]1CN(c2nc(C3CC3)c3c(c2C#N)CC(C)(C)OC3)CCN1C(=O)c1ccoc1 [Compound 180, (R)-8-cyclopropyl-6-(4-(furan-3-carbonyl)-3-isopropylpiperazin-1-yl)-3,3-dimethyl-3,4-dihydro-1H-pyrano[3,4-c]pyridine-5-carbonitrile]
< 0.5 µM | Cc1occc1C(=O)N1CCN(c2nc(C3CC3)c3c(c2C#N)CC(C)(C)OC3)C[C@H]1C(C)C [Compound 181]
1 to 10 µM | CC(C)[C@@H]1CN(c2nc(C3CCCCC3)c3c(c2C#N)CCOC3)CCN1C(=O)c1ccco1 [Compound 182, (R)-8-cyclohexyl-6-(4-(furan-2-carbonyl)-3-isopropylpiperazin-1-yl)-3,4-dihydro-1H-pyrano[3,4-c]pyridine-5-carbonitrile]
1 to 10 µM | Cc1occc1C(=O)N1CCN(c2nc(C3CCCCC3)c3c(c2C#N)CCOC3)C[C@H]1C [Compound 184, (R)-8-cyclohexyl-6-(3-methyl-4-(2-methylfuran-3-carbonyl)piperazin-1-yl)-3,4-dihydro-1H-pyrano[3,4-c]pyridine-5-carbonitrile]
1 to 10 µM | Cc1ccoc1C(=O)N1CCN(c2nc(C3CCCCC3)c3c(c2C#N)CCOC3)C[C@H]1C [Compound 186, (R)-8-cyclohexyl-6-(3-methyl-4-(3-methylfuran-2-carbonyl)piperazin-1-yl)-3,4-dihydro-1H-pyrano[3,4-c]pyridine-5-carbonitrile]
0.5 to 1 µM | Cc1oncc1C(=O)N1CCN(c2nc(C3CCCCC3)c3c(c2C#N)CCOC3)C[C@H]1C [Compound 187, (R)-8-cyclohexyl-6-(3-methyl-4-(5-methylisoxazole-4-carbonyl)piperazin-1-yl)-3,4-dihydro-1H-pyrano[3,4-c]pyridine-5-carbonitrile]
1 to 10 µM | COc1cccc(CC(=O)N2CCN(c3nc(C4CCCCC4)c4c(c3C#N)CCOC4)C[C@H]2C)c1 [Compound 189, (R)-8-cyclohexyl-6-(4-(2-(3-methoxyphenyl)acetyl)-3-methylpiperazin-1-yl)-3,4-dihydro-1H-pyrano[3,4-c]pyridine-5-carbonitrile]

The remaining lines, values behind:

Structure (SMILES) | IC50
C[C@@H]1CN(c2nc(C3CCCCC3)c3c(c2C#N)CCOC3)CCN1C(=O)c1ccoc1 [Compound 160, (R)-8-cyclohexyl-6-(4-(furan-3-carbonyl)-3-methylpiperazin-1-yl)-3,4-dihydro-1H-pyrano[3,4-c]pyridine-5-carbonitrile] | 1 to 10 µM
CC(C)c1nc(N2CCN(C(=O)Cc3cccc(Cl)c3)[C@H](C)C2)c(C#N)c2c1COC(C)(C)C2 [Compound 161, (R)-6-(4-(2-(3-chlorophenyl)acetyl)-3-methylpiperazin-1-yl)-8-isopropyl-3,3-dimethyl-3,4-dihydro-1H-pyrano[3,4-c]pyridine-5-carbonitrile] | 1 to 10 µM
C[C@@H]1CN(c2nc(C3CC3)c3c(c2C#N)CC(C)(C)OC3)CCN1C(=O)c1ccoc1 [Compound 164] | 0.5 to 1 µM
CC(C)c1nc(N2CCN(C(=O)c3ccoc3)[C@H](C(C)C)C2)c(C#N)c2c1COC(C)(C)C2 [Compound 165, (R)-6-(4-(furan-3-carbonyl)-3-isopropylpiperazin-1-yl)-8-isopropyl-3,3-dimethyl-3,4-dihydro-1H-pyrano[3,4-c]pyridine-5-carbonitrile] | < 0.5 µM
C[C@@H]1CN(c2nc(C3CC3)c3c(c2C#N)CC(C)(C)OC3)CCN1C(=O)c1ccco1 [Compound 167] | 1 to 10 µM
CC1CN(c2nc(C3CCCCC3)c3c(c2C#N)CC(C)(C)OC3)CCN1C(=O)c1ccco1 (stereo not shown) [Compound 168, 8-cyclohexyl-6-(4-(furan-2-carbonyl)-3-methylpiperazin-1-yl)-3,3-dimethyl-3,4-dihydro-1H-pyrano[3,4-c]pyridine-5-carbonitrile] | 1 to 10 µM
CC1CN(c2nc(C3CCCCC3)c3c(c2C#N)CC(C)(C)OC3)CCN1C(=O)c1ccoc1 (stereo not shown) [Compound 169, 8-cyclohexyl-6-(4-(furan-3-carbonyl)-3-methylpiperazin-1-yl)-3,3-dimethyl-3,4-dihydro-1H-pyrano[3,4-c]pyridine-5-carbonitrile] | 1 to 10 µM
CC(C)c1nc(N2CCN(S(=O)(=O)c3cccs3)[C@H](C)C2)c(C#N)c2c1COC(C)(C)C2 [Compound 170, (R)-8-isopropyl-3,3-dimethyl-6-(3-methyl-4-(thiophen-2-ylsulfonyl)piperazin-1-yl)-3,4-dihydro-1H-pyrano[3,4-c]pyridine-5-carbonitrile] | 1 to 10 µM
Cc1ccoc1C(=O)N1CCN(c2nc(C(C)C)c3c(c2C#N)CC(C)(C)OC3)C[C@H]1C [Compound 173, (R)-8-isopropyl-3,3-dimethyl-6-(3-methyl-4-(3-methylfuran-2-carbonyl)piperazin-1-yl)-3,4-dihydro-1H-pyrano[3,4-c]pyridine-5-carbonitrile] | 1 to 10 µM
CCC1CN(c2nc(C3CCCCC3)c3c(c2C#N)CCOC3)CCN1C(=O)c1ccco1 (stereo not shown) [Compound 174, 8-cyclohexyl-6-(3-ethyl-4-(furan-2-carbonyl)piperazin-1-yl)-3,4-dihydro-1H-pyrano[3,4-c]pyridine-5-carbonitrile] | 1 to 10 µM
Cc1occc1C(=O)N1CCN(c2nc(C(C)C)c3c(c2C#N)CC(C)(C)OC3)C[C@H]1C(C)C [Compound 176, (R)-8-isopropyl-6-(3-isopropyl-4-(2-methylfuran-3-carbonyl)piperazin-1-yl)-3,3-dimethyl-3,4-dihydro-1H-pyrano[3,4-c]pyridine-5-carbonitrile] | < 0.5 µM
CC(C)[C@@H]1CN(c2nc(C3CCCCC3)c3c(c2C#N)CCOC3)CCN1C(=O)c1ccoc1 [Compound 183, (R)-8-cyclohexyl-6-(4-(furan-3-carbonyl)-3-isopropylpiperazin-1-yl)-3,4-dihydro-1H-pyrano[3,4-c]pyridine-5-carbonitrile] | 1 to 10 µM
C[C@@H]1CN(c2nc(C3CCCCC3)c3c(c2C#N)CCOC3)CCN1C(=O)Cc1cccs1 [Compound 185, (R)-8-cyclohexyl-6-(3-methyl-4-(2-(thiophen-2-yl)acetyl)piperazin-1-yl)-3,4-dihydro-1H-pyrano[3,4-c]pyridine-5-carbonitrile] | 1 to 10 µM
C[C@@H]1CN(c2nc(C3CCCCC3)c3c(c2C#N)CCOC3)CCN1C(=O)Cc1ccccc1F [Compound 188, (R)-8-cyclohexyl-6-(4-(2-(2-fluorophenyl)acetyl)-3-methylpiperazin-1-yl)-3,4-dihydro-1H-pyrano[3,4-c]pyridine-5-carbonitrile] | 1 to 10 µM
